The values that follow come from US20020065219A1, “Water soluble thiazolyl peptide derivatives” (priority 2000, published 2002).

Values after ≈ are worked out from the molar mass of the structure shown.

The test system of assay [1] is Streptococcus pneumoniae A28272. In words: MIC, broth micro dilution assay (NCCLS). It counts as cell-based. The conditions noted are these: Streptococcus pneumoniae, A28272, 18 h, read-out: MIC (μg/mL) against Streptococcus pneumoniae A28272.
For assay [2], the system named is Enterococcus faecalis A20688. In words: MIC, broth micro dilution assay (NCCLS). The format is cell-based. The note with it: Enterococcus faecalis, A20688, 18 h, read-out: MIC (μg/mL) against Enterococcus faecalis A20688.
Assay [3] has as its system Staphylococcus aureus A15090. In words: MIC, broth micro dilution assay (NCCLS). It counts as cell-based. The conditions noted are these: Staphylococcus aureus, A15090, 18 h, read-out: MIC (μg/mL) against Staphylococcus aureus A15090.
Assay [4] relates to Staphylococcus aureus A15090. Kind of assay: animal or person. The note with it: A15090, in Mus musculus, iv, 1 h, read-out: PD50 (dose which protects 50% of mice from mortality). It counts as in vivo, female ICR mice.

Regarding `CO/C(C)=C1/NC(=O)C(C(C)O)NC(=O)c2csc(n2)-c2cc(O)c(-c3nc(C(=O)NC(CNCCc4ccccn4)C(N)=O)cs3)nc2-c2csc(n2)C2COC(=O)c3c4c5c(cccc5n3O)COC(=O)C(O[C@H]3C[C@](C)(O)[C@H](N(C)C)[C@H](C)O3)C(OC4)C(NC(=O)c3csc1n3)c1nc(cs1)C(=O)N2` (stereo partly drawn) [Example 3], the values for the MIC in assay [1], in assay [2] and in assay [3] were 0.25 µg/mL (≈ 0.16 µM), 1 µg/mL (≈ 0.641 µM) and 1 µg/mL (≈ 0.641 µM), respectively. Moreover, in assay [4], the ED50 was in the range of 0.19 to 7.3 mg/kg.
For `CO/C(C)=C1/NC(=O)C([C@@H](C)O)NC(=O)c2csc(n2)-c2cc(O)c(-c3nc(C(=O)NC(CNCCCn4ccnc4)C(N)=O)cs3)nc2-c2csc(n2)[C@@H]2COC(=O)c3c4c5c(cccc5n3O)COC(=O)[C@@H](O[C@H]3C[C@](C)(O)[C@H](N(C)C)[C@H](C)O3)[C@H](OC4)[C@H](NC(=O)c3csc1n3)c1nc(cs1)C(=O)N2` (stereo partly drawn) [Example 5], the MIC in assay [1] was found to be 0.03 µg/mL (≈ 0.0192 µM); in assay [2], 1 µg/mL (≈ 0.64 µM); in assay [3], 1 µg/mL (≈ 0.64 µM). Further, the ED50 in assay [4] was 0.19 to 7.3 mg/kg.
Take `CCN(CC)CCN(C)CC(NC(=O)c1csc(-c2nc3c(cc2O)-c2nc(cs2)C(=O)NC(C(C)O)C(=O)N/C(=C(\C)OC)c2nc(cs2)C(=O)NC2c4nc(cs4)C(=O)NC(COC(=O)c4c5c6c(cccc6n4O)COC(=O)C(O[C@H]4C[C@](C)(O)[C@H](N(C)C)[C@H](C)O4)C2OC5)c2nc-3cs2)n1)C(N)=O` (stereo partly drawn) [Example 6]: the MIC in assay [1] turned out to be 0.03 µg/mL (≈ 0.0191 µM); in assay [2] it was 2 µg/mL (≈ 1.28 µM); in assay [3], 0.125 µg/mL (≈ 0.0797 µM). Besides, the ED50 in assay [4] fell in the range of 0.19 to 7.3 mg/kg.
In the case of `CO/C(C)=C1/NC(=O)C(C(C)O)NC(=O)c2csc(n2)-c2cc(O)c(-c3nc(C(=O)NC(CN(C)C)C(N)=O)cs3)nc2-c2csc(n2)C2COC(=O)c3c4c5c(cccc5n3O)COC(=O)C(O[C@H]3C[C@](C)(O)[C@H](N(C)C)[C@H](C)O3)C(OC4)C(NC(=O)c3csc1n3)c1nc(cs1)C(=O)N2` (stereo partly drawn) [Example 7], the MIC in assay [1] is 0.03 µg/mL (≈ 0.0202 µM); in assay [2] it was 0.125 µg/mL (≈ 0.0843 µM); in assay [3] it was 0.06 µg/mL (≈ 0.0405 µM). In addition, the ED50 in assay [4] lay within 0.19 to 7.3 mg/kg.
The matching figures for `CO/C(C)=C1/NC(=O)C([C@@H](C)O)NC(=O)c2csc(n2)-c2cc(O)c(-c3nc(C(=O)NC(CN4CCOCC4)C(N)=O)cs3)nc2-c2csc(n2)[C@@H]2COC(=O)c3c4c5c(cccc5n3O)COC(=O)[C@@H](O[C@H]3C[C@](C)(O)[C@H](N(C)C)[C@H](C)O3)[C@@H](OC4)[C@H](NC(=O)c3csc1n3)c1nc(cs1)C(=O)N2` (stereo partly drawn) [Example 8]: 0.003 µg/mL (≈ 0.00197 µM), 0.125 µg/mL (≈ 0.082 µM), 0.015 µg/mL (≈ 0.00984 µM) and 0.19 to 7.3 mg/kg.
In the case of `CO/C(C)=C1/NC(=O)C(C(C)O)NC(=O)c2csc(n2)-c2cc(O)c(-c3nc(C(=O)NC(CN(C)CCN(C)C)C(N)=O)cs3)nc2-c2csc(n2)C2COC(=O)c3c4c5c(cccc5n3O)COC(=O)C(O[C@H]3C[C@](C)(O)[C@H](N(C)C)[C@H](C)O3)C(OC4)C(NC(=O)c3csc1n3)c1nc(cs1)C(=O)N2` (stereo partly drawn) [Example 9], the figures for the MIC in assay [1], in assay [2] and in assay [3] were 0.007 µg/mL (≈ 0.00455 µM), 0.5 µg/mL (≈ 0.325 µM) and 0.06 µg/mL (≈ 0.039 µM), respectively. The ED50 in assay [4] was 0.19 to 7.3 mg/kg.
